Assay results published in patent publication US12570659B2, “Bicyclic heteroaryl compounds useful as IRAK4 inhibitors” (BRISTOL-MYERS SQUIBB COMPANY, priority 2019, dated 2026).

Assays:
JAK3 kinase = JAK3 kinase (Homo sapiens (Human), UniProt P52333); assay: JAK3 Homogeneous Time Resolved Fluorescence (HTRF) Assay; type: binding; conditions: for IC50: competition binding with fluorescein-labeled ATP competitive probe; for Ratio of JAK3 IC50 to IRAK4 IC50: selectivity for IRAK4 over JAK3
Summary of the method: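 IC50 reflects displacement of a fluorescein-labeled ATP-site probe (at its Kd) from 1 nM tagged JAK3, detected via 0.2 nM Tb anti-His or anti-GST antibody. One-hour incubation; 495 and 520 nm emission ratios, background-subtracted, normalized to maximum signal; 11-point percent inhibition, 4-parameter logistic.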

IRAK4 = IRAK4 (Homo sapiens (Human), UniProt Q9NWZ3); assay: IRAK4 Inhibition Assay; type: biochemical; conditions: ATP 500 μM; IRAK4 0.6 nM; 60 min room temperature
Sequence of IRAK4 (Q9NWZ3 whole entry, species assumed): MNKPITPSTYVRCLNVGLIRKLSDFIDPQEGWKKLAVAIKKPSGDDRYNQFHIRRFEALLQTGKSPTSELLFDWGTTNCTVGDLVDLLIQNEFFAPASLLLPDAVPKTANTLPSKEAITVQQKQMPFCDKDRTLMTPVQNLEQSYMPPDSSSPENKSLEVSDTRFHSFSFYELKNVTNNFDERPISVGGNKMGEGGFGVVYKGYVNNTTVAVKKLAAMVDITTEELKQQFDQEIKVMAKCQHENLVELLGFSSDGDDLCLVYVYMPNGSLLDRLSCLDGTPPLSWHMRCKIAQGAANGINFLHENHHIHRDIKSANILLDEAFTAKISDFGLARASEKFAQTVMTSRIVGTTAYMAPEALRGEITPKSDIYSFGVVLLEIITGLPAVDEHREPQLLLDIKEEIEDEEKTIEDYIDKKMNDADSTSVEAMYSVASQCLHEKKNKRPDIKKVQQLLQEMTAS
Summary of the method: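 Phosphorylated and unphosphorylated fluorescent substrate were resolved by microfluidic electrophoresis after termination with 35 mM EDTA. The room-temperature kinase reaction lasted 60 min after IRAK4, substrates and test compound were combined; vehicle-only defined 0% and no-enzyme 100% inhibition.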

Sequence of JAK3 kinase (P52333 whole entry): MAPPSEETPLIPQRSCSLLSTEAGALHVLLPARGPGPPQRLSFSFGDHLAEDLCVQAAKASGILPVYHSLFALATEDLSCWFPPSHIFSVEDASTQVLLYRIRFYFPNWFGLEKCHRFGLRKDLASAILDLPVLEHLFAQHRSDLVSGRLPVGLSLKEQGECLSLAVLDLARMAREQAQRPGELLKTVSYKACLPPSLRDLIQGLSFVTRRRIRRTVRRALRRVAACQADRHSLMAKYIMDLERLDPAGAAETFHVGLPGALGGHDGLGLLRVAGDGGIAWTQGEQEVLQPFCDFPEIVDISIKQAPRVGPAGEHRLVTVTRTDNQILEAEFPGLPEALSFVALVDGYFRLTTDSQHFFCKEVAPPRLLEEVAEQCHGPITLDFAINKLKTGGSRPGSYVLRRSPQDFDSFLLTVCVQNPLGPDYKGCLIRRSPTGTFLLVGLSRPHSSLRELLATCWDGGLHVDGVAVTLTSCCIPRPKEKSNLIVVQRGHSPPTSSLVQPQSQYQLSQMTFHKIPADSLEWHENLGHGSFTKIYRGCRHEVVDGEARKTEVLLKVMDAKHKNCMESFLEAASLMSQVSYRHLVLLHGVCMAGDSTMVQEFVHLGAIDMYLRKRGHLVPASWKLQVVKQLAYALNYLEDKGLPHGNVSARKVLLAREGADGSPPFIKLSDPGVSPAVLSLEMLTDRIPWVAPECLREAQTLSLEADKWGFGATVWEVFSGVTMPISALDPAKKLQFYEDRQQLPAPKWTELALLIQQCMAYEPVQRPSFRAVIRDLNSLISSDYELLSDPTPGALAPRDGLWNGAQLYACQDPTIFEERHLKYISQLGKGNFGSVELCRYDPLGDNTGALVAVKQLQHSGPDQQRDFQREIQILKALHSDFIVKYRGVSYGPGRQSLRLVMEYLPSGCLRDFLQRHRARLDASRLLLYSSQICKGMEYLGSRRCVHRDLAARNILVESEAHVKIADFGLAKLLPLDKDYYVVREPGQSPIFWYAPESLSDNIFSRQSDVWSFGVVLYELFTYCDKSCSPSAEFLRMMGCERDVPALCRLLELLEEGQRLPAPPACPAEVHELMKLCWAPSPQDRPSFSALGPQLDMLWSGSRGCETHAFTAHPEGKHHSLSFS

Row | Structure (SMILES) | IC50 (JAK3 kinase) [nM] | Ratio of JAK3 IC50 to IRAK4 IC50 (JAK3 kinase) | IC50 (IRAK4) [nM]
1 | CC(C)Nc1c(C(=O)NC[C@@H](F)C(C)(C)O)cnc2cc(-c3ccccc3)nn12 [Example 128, (R)—N-(2-fluoro-3-hydroxy-3-methylbutyl)-7-(isopropylamino)-2-phenylpyrazolo[1,5-a]pyrimidine-6-carboxamide] | > 10000 | >175 | 57
2 | CC(C)(O)[C@H](F)CNC(=O)c1cnc2cc(-c3cccnc3)nn2c1NCC(F)F [Example 129, (R)-7-((2,2-difluoroethyl)amino)-N-(2-fluoro-3-hydroxy-3-methylbutyl)-2-(pyridin-3-yl) pyrazolo[1,5-a]pyrimidine-6-carboxamide] | > 10000 | >33 | 300
3 | CC(C)Nc1c(C(=O)NC[C@@H](F)C(C)(C)O)cnc2cc(-c3cncc(F)c3)nn12 [Example 130, (R)—N-(2-fluoro-3-hydroxy-3-methylbutyl)-2-(5-fluoropyridin-3-yl)-7-(isopropylamino) pyrazolo[1,5-a]pyrimidine-6-carboxamide] | > 10000 | >91 | 110
4 | Cc1ccc(-c2cc3ncc(C(=O)NC[C@@H](F)C(C)(C)O)c(NC(C)C)n3n2)cn1 [Example 131, (R)—N-(2-fluoro-3-hydroxy-3-methylbutyl)-7-(isopropylamino)-2-(6-methylpyridin-3-yl)pyrazolo[1,5-a]pyrimidine-6-carboxamide] | > 50000 | >2500 | 20
5 | Cc1ncccc1-c1cc2ncc(C(=O)NC[C@@H](F)C(C)(C)O)c(NC(C)C)n2n1 [Example 132, (R)—N-(2-fluoro-3-hydroxy-3-methylbutyl)-7-(isopropylamino)-2-(2-methylpyridin-3-yl)pyrazolo[1,5-a]pyrimidine-6-carboxamide] | > 50000 | >217 | 230
6 | CC(C)Nc1c(C(=O)NC[C@@H](F)C(C)(C)O)cnc2cc(-c3cccc(C#N)c3)nn12 [Example 133, (R)-2-(3-cyanophenyl)-N-(2-fluoro-3-hydroxy-3-methylbutyl)-7-(isopropylamino)pyrazolo[1,5-a] pyrimidine-6-carboxamide] | > 2000 | >15 | 130
7 | CC(C)Nc1c(C(=O)NC[C@@H](F)C(C)(C)O)cnc2cc(-c3ncco3)nn12 [Example 134, (R)—N-(2-fluoro-3-hydroxy-3-methylbutyl)-7-(isopropylamino)-2-(oxazol-2-yl)pyrazolo[1,5-a]pyrimidine-6-carboxamide] | > 50000 | >227 | 220
8 | CC(C)Nc1c(C(=O)NC[C@@H](F)C(C)(C)O)cnc2cc(-c3ccccc3F)nn12 [Example 135, (R)—N-(2-fluoro-3-hydroxy-3-methylbutyl)-2-(2-fluorophenyl)-7-(isopropylamino)pyrazolo[1,5-a]pyrimidine-6-carboxamide] | > 10000 | >455 | 22
9 | Cc1ccccc1-c1cc2ncc(C(=O)NC[C@@H](F)C(C)(C)O)c(NC(C)C)n2n1 [Example 136, (R)—N-(2-fluoro-3-hydroxy-3-methylbutyl)-7-(isopropylamino)-2-(o-tolyl)pyrazolo[1,5-a]pyrimidine-6-carboxamide] | > 10000 | >20 | 510
10 | CC(C)Nc1c(C(=O)NC[C@@H](F)C(C)(C)O)cnc2cc(-c3ccncc3F)nn12 [Example 137, (R)—N-(2-fluoro-3-hydroxy-3-methylbutyl)-2-(3-fluoropyridin-4-yl)-7-(isopropylamino) pyrazolo[1,5-a]pyrimidine-6-carboxamide] | > 10000 | >1190 | 8.4
11 | CC(C)(O)[C@H](F)CNC(=O)c1cnc2cc(-c3cccnc3)nn2c1N[C@H]1CCN(c2cnc(F)nc2)C1 [Example 138, N—((R)-2-fluoro-3-hydroxy-3-methylbutyl)-7-(((S)-1-(2-fluoropyrimidin-5-yl)pyrrolidin-3-yl)amino)-2-(pyridin-3-yl) pyrazolo[1,5-a]pyrimidine-6-carboxamide] | > 10000 | >16 | 640
12 | CC(C)(O)[C@H](F)CNC(=O)c1cnc2cc(-c3cccnc3)nn2c1N[C@H]1CCC[C@H]1O [Example 139, N—((R)-2-fluoro-3-hydroxy-3-methylbutyl)-7-(((1S,2R)-2-hydroxycyclopentyl)amino)-2-(pyridin-3-yl)pyrazolo[1,5-a] pyrimidine-6-carboxamide] | > 50000 | >200 | 250
13 | CC(C)Nc1c(C(=O)NC[C@@H](F)C(C)(C)O)cnc2cc(-c3cccc(F)c3)nn12 [Example 140, (R)—N-(2-fluoro-3-hydroxy-3-methylbutyl)-2-(3-fluorophenyl)-7-(isopropylamino)pyrazolo[1,5-a]pyrimidine-6-carboxamide] | > 50000 | >610 | 82
14 | CC(C)Nc1c(C(=O)NC[C@@H](F)C(C)(C)O)cnc2cc(-c3ccc(C#N)cc3)nn12 [Example 141, (R)-2-(4-cyanophenyl)-N-(2-fluoro-3-hydroxy-3-methylbutyl)-7-(isopropylamino)pyrazolo[1,5-a]pyrimidine-6-carboxamide] | > 50000 | >4545 | 11
15 | COc1ccc(-c2cc3ncc(C(=O)NC[C@@H](F)C(C)(C)O)c(NC(C)C)n3n2)cn1 [Example 142, (R)—N-(2-fluoro-3-hydroxy-3-methylbutyl)-7-(isopropylamino)-2-(6-methoxypyridin-3-yl)pyrazolo[1,5-a]pyrimidine-6-carboxamide] | > 10000 | >71 | 140
16 | COc1ncccc1-c1cc2ncc(C(=O)NC[C@@H](F)C(C)(C)O)c(NC(C)C)n2n1 [Example 143, (R)—N-(2-fluoro-3-hydroxy-3-methylbutyl)-7-(isopropylamino)-2-(2-methoxypyridin-3-yl)pyrazolo[1,5-a]pyrimidine-6-carboxamide] | > 10000 | >16 | 630
17 | COc1cccc(-c2cc3ncc(C(=O)NC[C@@H](F)C(C)(C)O)c(NC(C)C)n3n2)n1 [Example 144, (R)—N-(2-fluoro-3-hydroxy-3-methylbutyl)-7-(isopropylamino)-2-(6-methoxypyridin-2-yl)pyrazolo[1,5-a] pyrimidine-6-carboxamide] | > 50000 | >36 | 1400
18 | CC(C)Nc1c(C(=O)NC[C@@H](F)C(C)(C)O)cnc2cc(-c3cccc(=O)[nH]3)nn12 [Example 145, (R)—N-(2-fluoro-3-hydroxy-3-methylbutyl)-7-(isopropylamino)-2-(6-oxo-1,6-dihydropyridin-2-yl) pyrazolo[1,5-a]pyrimidine-6-carboxamide] | > 50000 | >167 | 300
19 | Cc1cncc(-c2cc3ncc(C(=O)NC[C@@H](F)C(C)(C)O)c(NC(C)C)n3n2)c1 [Example 146, (R)—N-(2-fluoro-3-hydroxy-3-methylbutyl)-7-(isopropylamino)-2-(5-methylpyridin-3-yl)pyrazolo[1,5-a]pyrimidine-6-carboxamide] | > 50000 | >104 | 480
20 | CC(C)Nc1c(C(=O)NC[C@@H](F)C(C)(C)O)cnc2cc(C3CC3)nn12 [Example 147, (R)-2-cyclopropyl-N-(2-fluoro-3-hydroxy-3-methylbutyl)-7-(isopropylamino)pyrazolo[1,5-a]pyrimidine-6-carboxamide] | > 50000 | >119 | 420
21 | COc1cc(-c2cc3ncc(C(=O)NC[C@@H](F)C(C)(C)O)c(NC(C)C)n3n2)ccn1 [Example 148, (R)—N-(2-fluoro-3-hydroxy-3-methylbutyl)-7-(isopropylamino)-2-(2-methoxypyridin-4-yl)pyrazolo[1,5-a]pyrimidine-6-carboxamide] | > 10000 | >164 | 61
22 | COC(=O)c1cncc(-c2cc3ncc(C(=O)NC[C@@H](F)C(C)(C)O)c(NC(C)C)n3n2)c1 [Example 149, methyl (R)-5-(6-((2-fluoro-3-hydroxy-3-methylbutyl)carbamoyl)-7-(isopropylamino)pyrazolo[1,5-a]pyrimidin-2-yl)nicotinate] | > 50000 | >238 | 210
23 | CC(C)Nc1c(C(=O)NC[C@@H](F)C(C)(C)O)cnc2cc(-c3cncc(C(C)(C)O)c3)nn12 [Example 150, (R)—N-(2-fluoro-3-hydroxy-3-methylbutyl)-2-(5-(2-hydroxypropan-2-yl)pyridin-3-yl)-7-(isopropylamino)pyrazolo[1,5-a]pyrimidine-6-carboxamide] | > 10000 | >18 | 560
24 | CC(C)Nc1c(C(=O)NC[C@@H](F)C(C)(C)O)cnc2cc(-n3ccccc3=O)nn12 [Example 151, (R)—N-(2-fluoro-3-hydroxy-3-methylbutyl)-7-(isopropylamino)-2-(2-oxopyridin-1(2H)-yl)pyrazolo[1,5-a]pyrimidine-6-carboxamide] | > 50000 | >86 | 580
25 | CC(C)Nc1c(C(=O)NC[C@@H](F)C(C)(C)O)cnc2cc(-c3ccccn3)nn12 [Example 152, (R)—N-(2-fluoro-3-hydroxy-3-methylbutyl)-7-(isopropylamino)-2-(pyridin-2-yl)pyrazolo[1,5-a]pyrimidine-6-carboxamide] | > 10000 | >63 | 160
